Structures are written as SMILES.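 Tested at 5 concentrations; 48 h exposure; 96-well plates; endpoints linearly interpolated, else capped at highest concentration. GI50 marks 50% less growth. TGI: concentration producing complete growth inhibition.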 Where a SMILES comes first, the peptide text is derived from it. Bridges are numbered along the chain shown (N, C = ends). Roman numbers before positions name the chains, in order. [ ]: non-standard residue; d: D form. The star is where a group is joined. Quinoxaline2carbonyl = O=C(c1cnc2ccccc2n1)*; NMeV = CN[CH](C(=O)O)C(C)C; NMeC = CN[CH](CS)C(=O)O

Test systems include RXF-631 renal; KM20L2 colon; DMS 114 small cell lung; MDA-N; DMS 273 small cell lung; HOP-18 NSCLC; SNB-78 CNS; LXFL 529 NSCLC; XF 498 CNS.
Assay in all cases: growth of human tumour cells (NCI), 48 h

Take `CNS(=O)(=O)NNS(=O)(=O)c1ccc(Cl)cc1`: the TGI with RXF-631 renal, in the assay on KM20L2 colon and in the assay on DMS 114 small cell lung was above 100 µM throughout.
On to `CC1NC(=O)C(NC(=O)c2cnc3ccccc3n2)COC(=O)C(C(C)C)N(C)C(=O)C2CSSCC(C(=O)N(C)C(C(C)C)C(=O)OCC(NC(=O)c3cnc4ccccc4n3)C(=O)NC(C)C(=O)N2C)N(C)C1=O` (configuration not stated) (I: Quinoxaline2carbonyl-SA[NMeC][NMeV] / II: Quinoxaline2carbonyl-SA[NMeC][NMeV]; ester I:1-II:C, I:C-II:1; disulfide I:3-II:3; configuration not given here), for which, in the assay with MDA-N, the TGI was below 0.01 µM.
In the assay with MDA-N, `CN(CC(N)=O)C(=O)N(CCCl)N=O` showed a TGI above 100 µM.
Take `O=C(O)/C(Cl)=C(\Cl)C(=O)Nc1ccc(Cl)c(Cl)c1Cl`: the TGI was 36.2 µM in the assay on DMS 273 small cell lung; 31 µM with HOP-18 NSCLC; 44.7 µM with KM20L2 colon; 84.7 µM in the assay with SNB-78 CNS; 35.1 µM in the assay on DMS 114 small cell lung; 37.9 µM with LXFL 529 NSCLC.
On to `COC(=O)C(C)(C)N=CN(C)C`, for which the TGI in the assay on DMS 273 small cell lung, in the assay with RXF-631 renal, in the assay with XF 498 CNS, in the assay with HOP-18 NSCLC, with KM20L2 colon and in the assay on SNB-78 CNS was above 100 µM throughout. For the same compound, the TGI with DMS 114 small cell lung and in the assay with LXFL 529 NSCLC was above 100 µM throughout.
Turning to `O=C(O)COc1c(Cl)cc(Cl)c2cccnc12`, the TGI with MDA-N was above 100 µM.
As for `CC1CN1c1c(C(=O)/C=C/c2ccccc2)c(-c2ccccc2)nn(C)c1=O` (configuration not stated), the TGI is 30.3 µM in the assay with DMS 273 small cell lung; 71.5 µM with HOP-18 NSCLC; 36.2 µM with KM20L2 colon; 33.7 µM in the assay with SNB-78 CNS; 43.8 µM in the assay with DMS 114 small cell lung; 28.9 µM in the assay with LXFL 529 NSCLC.
For the compound `Cc1cc2c(c(C(=O)O)c1C)-c1cccc(F)c1C2=O`, the TGI in the assay on DMS 273 small cell lung, with RXF-631 renal, in the assay on XF 498 CNS, in the assay on KM20L2 colon, in the assay with SNB-78 CNS and with DMS 114 small cell lung was above 100 µM throughout. The compound also yielded a TGI in the assay with LXFL 529 NSCLC above 100 µM.
`CC1(C)C2CCC13CS(=O)(=O)N1O[C@]13C(=O)O2` (some centres not stated): the TGI in the assay on RXF-631 renal, in the assay on HOP-18 NSCLC, in the assay on KM20L2 colon, in the assay with SNB-78 CNS, in the assay with DMS 114 small cell lung and with LXFL 529 NSCLC was above 100 µM in each case.
Consider `N/N=C1\CC(=O)NC(=O)N1`, for which, in the assay on MDA-N, the TGI was above 100 µM.
Turning to `CCOC(=O)C(=O)Nc1cc(Cl)ccc1Cl`, the TGI in the assay on DMS 273 small cell lung, in the assay with XF 498 CNS, with HOP-18 NSCLC, in the assay on KM20L2 colon, with DMS 114 small cell lung and with LXFL 529 NSCLC was above 100 µM in each case.
`Cc1cc(N(CCC#N)CCC#N)ccc1/C=C1N=C(/C=C\c2ccccc2)N(c2ccc(Cl)cc2)C\1=O`: the TGI with MDA-N is above 100 µM; in the assay with DMS 273 small cell lung, above 100 µM; in the assay on XF 498 CNS it was above 100 µM; with HOP-18 NSCLC it was above 100 µM; in the assay with KM20L2 colon, above 31.9 µM; with SNB-78 CNS, above 100 µM. Besides, the TGI in the assay on DMS 114 small cell lung was above 100 µM.
For the compound `CN(C)c1ccc(/C=C2\C=Cc3ccccc32)cc1`, the TGI was above 100 µM with DMS 273 small cell lung; above 100 µM in the assay on HOP-18 NSCLC; above 100 µM in the assay with KM20L2 colon; 89.6 µM in the assay on DMS 114 small cell lung; above 100 µM with LXFL 529 NSCLC.
As to `CCCCCCN(N)C(=O)CC#N`, the TGI in the assay on DMS 273 small cell lung, with RXF-631 renal, in the assay with HOP-18 NSCLC, in the assay on KM20L2 colon, in the assay with SNB-78 CNS and in the assay with DMS 114 small cell lung was above 100 µM each time. This compound also displayed a TGI in the assay on LXFL 529 NSCLC above 100 µM.
For `CC(C)c1c2[nH]c3ccccc3c2c(C(C)C)c2[nH]c3ccccc3c12`, the TGI with DMS 273 small cell lung, in the assay with RXF-631 renal, in the assay with XF 498 CNS, with HOP-18 NSCLC, in the assay on KM20L2 colon and in the assay with SNB-78 CNS was above 100 µM throughout. The TGI in the assay on DMS 114 small cell lung and in the assay with LXFL 529 NSCLC was above 100 µM each time.
Regarding `Cn1cncc1CC1COC(=O)C1C(O)c1ccccc1` (configuration not stated), the TGI with MDA-N is above 100 µM.
For the compound `COc1cc2nc(NCCCCCNC(=O)c3ccco3)nc(N)c2cc1OC`, the TGI with DMS 273 small cell lung was above 100 µM; in the assay with RXF-631 renal, 74.1 µM; with HOP-18 NSCLC, above 100 µM; with KM20L2 colon, above 100 µM; in the assay on SNB-78 CNS, 89.5 µM; in the assay with DMS 114 small cell lung, 40.6 µM.
With `N#Cc1ccc(N=Cc2c([O-])ccc3ccccc23)cc1.[C-]#[O+].[C-]#[O+].[Ir]`, the GI50 with XF 498 CNS is 2.36 µM; in the assay with HOP-18 NSCLC it was 2.74 µM; in the assay on KM20L2 colon it was 16 µM; in the assay with DMS 114 small cell lung, 1.69 µM; in the assay with LXFL 529 NSCLC it was 1.84 µM. Also, the TGI with XF 498 CNS came to 12 µM; with HOP-18 NSCLC, 8.51 µM; in the assay with KM20L2 colon it was 29.5 µM; in the assay with DMS 114 small cell lung, 3.66 µM; in the assay with LXFL 529 NSCLC it was 4.32 µM.
Turning to `CCCCCCCCCCCCCP(=O)(O)NCC(N)=O`, the TGI with RXF-631 renal is above 100 µM; in the assay on XF 498 CNS it was above 100 µM; in the assay with HOP-18 NSCLC, 86.1 µM; with KM20L2 colon, above 100 µM; with DMS 114 small cell lung it was above 100 µM; with LXFL 529 NSCLC, above 100 µM.
Compound `CC1(C)CCC[C@]2(C)[C@@H](C=O)C(C=O)=CC[C@@H]12` showed a TGI with MDA-N of 26.4 µM.
As for `COC(CN1C=C(Sc2ccccc2)CC1)OC`, the TGI is 66.3 µM with XF 498 CNS; above 100 µM in the assay on HOP-18 NSCLC; above 100 µM with KM20L2 colon; above 100 µM in the assay on SNB-78 CNS; 65.4 µM in the assay on DMS 114 small cell lung.
For the compound `O=C([CH-]C(=O)c1ccccc1)c1ccccc1.O=C([CH-]C(=O)c1ccccc1)c1ccccc1.[OH-].[OH-].[Ti+4]`, in the assay with KM20L2 colon, the GI50 is above 100 µM and the TGI is above 100 µM.
As for `CN(C)CCC(/C=C/c1ccccc1)=N\Nc1ccc(Cl)cc1Cl`, the TGI with DMS 273 small cell lung is 25.9 µM; with HOP-18 NSCLC it was 21.9 µM; in the assay with SNB-78 CNS, 26.9 µM; with DMS 114 small cell lung, 29.5 µM; in the assay on LXFL 529 NSCLC, 22.8 µM.
As for `C/C=C(\C)c1cc(O)c(C)c2c1Oc1cc(O)c(Cl)c(C)c1C(=O)O2`, the TGI amounted to 67.9 µM in the assay with DMS 273 small cell lung; 35.2 µM in the assay on KM20L2 colon; 82.6 µM in the assay with SNB-78 CNS; 74.9 µM in the assay on DMS 114 small cell lung; 60 µM with LXFL 529 NSCLC.
Consider `Fc1cccc(C2SCc3nc4ccccc4n32)c1F` (configuration not stated), for which the TGI in the assay on DMS 273 small cell lung was 50.5 µM; in the assay with RXF-631 renal it was 36 µM; in the assay on HOP-18 NSCLC it was above 100 µM; with KM20L2 colon, above 100 µM; in the assay with SNB-78 CNS, above 100 µM; in the assay on DMS 114 small cell lung it was above 100 µM. This compound displayed a TGI in the assay with LXFL 529 NSCLC above 100 µM.
For `CCOC1=C2N=C(Cc3ccccc3F)N=C2C(=O)c2ccccc21`, the TGI with DMS 273 small cell lung, with XF 498 CNS, in the assay with HOP-18 NSCLC, in the assay with KM20L2 colon, in the assay with DMS 114 small cell lung and with LXFL 529 NSCLC was above 100 µM in each case.
With `COc1ccc(C(Cl)=C(c2ccc(OCCN(C)C)cc2)c2ccc(OCCN(C)C)cc2)cc1`, the TGI was 4.17 µM with DMS 273 small cell lung; 0.966 µM in the assay with RXF-631 renal; 2.81 µM with XF 498 CNS; 2.74 µM with KM20L2 colon; 3.94 µM in the assay on SNB-78 CNS; 3.06 µM in the assay with DMS 114 small cell lung.
`Cc1ccc(C2=Nc3ccccc3SC(c3cccc([N+](=O)[O-])c3)C2)cc1` (configuration not stated) yielded a TGI with MDA-N above 100 µM.
In the case of `Cn1c2ccccc2n2c(=O)c3c(c(C#N)c12)CCCC3`, the TGI in the assay with DMS 273 small cell lung, with XF 498 CNS, in the assay on KM20L2 colon, in the assay with SNB-78 CNS and with DMS 114 small cell lung was above 100 µM each time.
As to `COCCOCOc1ccc(OCOCCOC)c2c1C(=O)c1ccccc1C2=O`, the TGI with DMS 273 small cell lung is above 100 µM; in the assay on XF 498 CNS it was above 100 µM; with HOP-18 NSCLC it was above 100 µM; in the assay with KM20L2 colon, above 100 µM; with SNB-78 CNS, above 100 µM; with DMS 114 small cell lung, 37.3 µM.
`CN(C)c1ccc(N=Nc2ccncc2)cc1` returned a TGI in the assay with MDA-N above 100 µM.
As for `Cc1ccc(S(=O)OC2C3CC4CC(C3)CC2C4)cc1` (configuration not stated), the TGI in the assay on DMS 273 small cell lung, with XF 498 CNS, in the assay on HOP-18 NSCLC, with KM20L2 colon, with SNB-78 CNS and in the assay on DMS 114 small cell lung was above 100 µM throughout. In the assay on LXFL 529 NSCLC, this compound came in with a TGI above 100 µM.
With `CCO/C=C1\N=C(c2ccccc2Br)OC1=O`, the TGI in the assay with DMS 273 small cell lung, in the assay on XF 498 CNS, with KM20L2 colon, in the assay on SNB-78 CNS, with DMS 114 small cell lung and with LXFL 529 NSCLC was above 100 µM each time.
In the assay on MDA-N, `CCC1(O)C(=O)OCc2c1cc1n(c2=O)Cc2cc3cc(N)ccc3nc2-1` (configuration not stated) yielded a TGI of 0.285 µM.
For the compound `COc1ccc(-c2cc(=O)c3c(OC)c(OC)c(OC)c(OC)c3o2)cc1`, in the assay with MDA-N, the TGI is above 100 µM.
As for `CN1COc2c(n(C)c(=O)[nH]c2=O)C1`, the TGI in the assay with DMS 273 small cell lung, in the assay with XF 498 CNS, in the assay with HOP-18 NSCLC, with KM20L2 colon, in the assay with SNB-78 CNS and with DMS 114 small cell lung was above 100 µM each time. This compound also showed a TGI in the assay with LXFL 529 NSCLC above 100 µM.
For `COc1ccc(C=O)c(NC(=O)C(C)C)c1`, the TGI in the assay with DMS 273 small cell lung is above 100 µM; in the assay with XF 498 CNS, 68.9 µM; in the assay with HOP-18 NSCLC it was 90.6 µM; in the assay with KM20L2 colon, above 100 µM; in the assay on SNB-78 CNS, above 100 µM; in the assay on DMS 114 small cell lung it was 88.7 µM. For the same compound, the TGI with LXFL 529 NSCLC was above 100 µM.
For `C[CH2][Pb]([CH2]C)([CH2]C)[O]C(=O)c1ccc2ccccc2n1`, in the assay with MDA-N, the GI50 was above 10 µM and the TGI is above 10 µM.

(Values after PubChem BioAssay (NCI).)
